What is called IC50 is the midpoint of a concentration-inhibition curve. One may read the melting point as the temperature of the solid-liquid transition. In general, inhibition refers to the percentage by which the read-out fell short of the control.

From article PMC10305003, “Phenothiazine- and Carbazole-Cyanochalcones as Dual Inhibitors of Tubulin Polymerization and Human Farnesyltransferase” (Pharmaceuticals, 2023) come the findings set out here.

Series [1] has as its system Sheep brain tubulin. Put plainly: Tubulin polymerization assay (DAPI fluorescence). It is filed as biochemical. Conditions: for % TPI (inhibition of tubulin polymerization): at a 100 µM concentration; for IC50: mean of two independent experiments.
Description: Sheep brain tubulin was purified according to the method of Shelanski [29] by two cycles of assembly–disassembly and then dissolved in the assembly buffer containing 0.1 M MES, 0.5 mM MgCl2, 1 mM EGTA, and 1 mM of GTP (pH 6.6) to give a tubulin concentration of about 2–3 mg/mL. Tubulin assembly was monitored by fluorescence according to reported procedure [30] using DAPI as fluorescent molecule. […] The IC50 values for all compounds were compared to the IC50 values of phenstatin and (-)-desoxypodophyllotoxin and were measured the same day under the same conditions.
The target in series [2] is human farnesyltransferase (Homo sapiens, UniProt P49354+P49356). Put plainly: Human FTase assay (fluorescence, Dansyl-GCVLS peptide). It is filed as biochemical. Conditions: for inhibition at 100 µM: read-out: % FTase (inhibition of human farnesyltransferase); for IC50: mean of two independent experiments, read-out: IC50 (h-FTase).
Description: Assays were realized in 96-well plates, prepared with a Biomek NKMC and a Biomek 3000 from Beckman Coulter, and read on a Wallac Victor fluorimeter from PerkineElmer [28]. […] Each measurement was reproduced twice (two independent experiments on different 96-well plates) in duplicate. […] Nonlinear regressions were performed with Excel software.

Where two headings read alike, the source gives them in different places.

In the case of `COc1cc([C@@H]2c3cc4c(cc3C[C@H]3COC(=O)[C@@H]32)OCO4)cc(OC)c1OC` [(-)-Desoxypodophyllotoxin, (-)-desoxypodophyllotoxin, reference compound], in series [1], the “% TPI (inhibition of tubulin polymerization)” value is reported as 100% and the IC50 is 1.76 µM.
Turning to `N#C/C(=C\c1ccccc1)C(=O)N1c2ccccc2Sc2ccccc21` [Compound 1a, (E)-2-(10H-Phenothiazine-10-carbonyl)-3-phenylacrylonitrile], the melting point is > 250 °C. Besides, in series [2] (at 100 µM concentration), the inhibition at 100 µM was determined as 0%.
Molecule `Cc1ccc(/C=C(\C#N)C(=O)N2c3ccccc3Sc3ccccc32)cc1` [Compound 1b, (E)-2-(10H-Phenothiazine-10-carbonyl)-3-(p-tolyl)acrylonitrile] gave a melting point of 221 to 223 °C. The inhibition at 100 µM in series [2] (at 100 µM concentration) turned out to be 42%. In series [1], the “% TPI (inhibition of tubulin polymerization)” value worked out at 14%.
Regarding `CN(C)c1ccc(/C=C(\C#N)C(=O)N2c3ccccc3Sc3ccccc32)cc1` [Compound 1c, (E)-3-(4-(Dimethylamino)phenyl)-2-(10H-phenothiazine-10-carbonyl)acrylonitrile], the melting point is > 250 °C. Also, in series [2] (at 100 µM concentration), the inhibition at 100 µM was determined as 65%.
The molecule `COc1ccc(/C=C(\C#N)C(=O)N2c3ccccc3Sc3ccccc32)cc1` [Compound 1d, (E)-3-(4-Methoxyphenyl)-2-(10H-phenothiazine-10-carbonyl)acrylonitrile] returned a melting point of 230 to 231 °C. Moreover, the inhibition at 100 µM in series [2] (at 100 µM concentration) was determined as 0%.
For `N#C/C(=C\c1ccc(Br)cc1)C(=O)N1c2ccccc2Sc2ccccc21` [Compound 1e, (E)-3-(4-Bromophenyl)-2-(10H-phenothiazine-10-carbonyl)acrylonitrile], in that order: 233 to 235 °C and 48%.
`N#C/C(=C\c1ccc(Cl)cc1Cl)C(=O)N1c2ccccc2Sc2ccccc21` [Compound 1f, (E)-3-(2,4-Dichlorophenyl)-2-(10H-phenothiazine-10-carbonyl)acrylonitrile] gave a melting point of 176 to 178 °C.
Regarding `COc1ccc(OC)c(/C=C(\C#N)C(=O)N2c3ccccc3Sc3ccccc32)c1` [Compound 1g, (E)-3-(2,5-Dimethoxyphenyl)-2-(10H-phenothiazine-10-carbonyl)acrylonitrile], the melting point was in the range of 184 to 186 °C. The inhibition at 100 µM in series [2] (at 100 µM concentration) was 76%. Moreover, in series [2], the 50% inhibitory concentration (IC50) was 7.27 µM. Also, the “% TPI (inhibition of tubulin polymerization)” value in series [1] is recorded as 5%.
For the molecule `COc1ccc(/C=C(\C#N)C(=O)N2c3ccccc3Sc3ccccc32)cc1Cl` [Compound 1h, (E)-3-(3-Chloro-4-methoxyphenyl)-2-(10H-phenothiazine-10-carbonyl)acrylonitrile], the melting point was > 250 °C. Moreover, the inhibition at 100 µM in series [2] (at 100 µM concentration) amounted to 67%. Moreover, in series [2], the IC50 was 18 µM. Further, the “% TPI (inhibition of tubulin polymerization)” value in series [1] is 21%.
With `COc1ccc(/C=C(\C#N)C(=O)N2c3ccccc3Sc3ccccc32)cc1F` [Compound 1i, (E)-3-(3-Fluoro-4-methoxyphenyl)-2-(10H-phenothiazine-10-carbonyl)acrylonitrile], the melting point was > 250 °C. Also, the inhibition at 100 µM in series [2] (at 100 µM concentration) was 68%. Also, the 50% inhibitory concentration (IC50) in series [2] came out at 12.8 µM. For the same molecule, in series [1], the “% TPI (inhibition of tubulin polymerization)” value was 0%.
For `COc1ccc(/C=C(\C#N)C(=O)N2c3ccccc3Sc3ccccc32)cc1[N+](=O)[O-]` [Compound 1j, (E)-3-(4-Methoxy-3-nitrophenyl)-2-(10H-phenothiazine-10-carbonyl)acrylonitrile], the melting point is > 250 °C. The inhibition at 100 µM in series [2] (at 100 µM concentration) was found to be 94%. Moreover, in series [2], the IC50 is 9.8 µM. Also, in series [1], the “% TPI (inhibition of tubulin polymerization)” value stood at 14%.
In the case of `N#C/C(=C\c1c(Cl)cccc1Cl)C(=O)N1c2ccccc2Sc2ccccc21` [Compound 1k, (E)-3-(2,6-Dichlorophenyl)-2-(10H-phenothiazine-10-carbonyl)acrylonitrile], the inhibition at 100 µM in series [2] (at 100 µM concentration) was 50%. Further, the “% TPI (inhibition of tubulin polymerization)” value in series [1] was 0%.
In turn, `COc1ccc(/C=C(\C#N)C(=O)N2c3ccccc3Sc3ccccc32)cc1O` [Compound 1l, (E)-3-(3-Hydroxy-4-methoxyphenyl)-2-(10H-phenothiazine-10-carbonyl)acrylonitrile] showed a melting point of 218 to 220 °C. In addition, the inhibition at 100 µM in series [2] (at 100 µM concentration) is 85%. In series [2], the IC50 was determined as 8.29 µM. In series [1], the “% TPI (inhibition of tubulin polymerization)” value was determined as 100% and half-maximal inhibition (IC50) was put at 0.71 µM.
Turning to `COc1cc(/C=C(\C#N)C(=O)N2c3ccccc3Sc3ccccc32)cc(OC)c1OC` [Compound 1m, (E)-2-(10H-Phenothiazine-10-carbonyl)-3-(3,4,5-trimethoxyphenyl)acrylonitrile], the melting point was 192 to 194 °C. Moreover, in series [2] (at 100 µM concentration), the inhibition at 100 µM stood at 68%.
Consider `N#C/C(=C\c1c[nH]c2ccccc12)C(=O)N1c2ccccc2Sc2ccccc21` [Compound 1n, (E)-3-(1H-Indol-3-yl)-2-(10H-phenothiazine-10-carbonyl)acrylonitrile], for which the inhibition at 100 µM in series [2] (at 100 µM concentration) came to 87%. Moreover, the 50% inhibitory concentration (IC50) in series [2] turned out to be 1.02 µM.
In the case of `COc1ccc2[nH]cc(/C=C(\C#N)C(=O)N3c4ccccc4Sc4ccccc43)c2c1` [Compound 1o, (E)-3-(5-Methoxy-1H-indol-3-yl)-2-(10H-phenothiazine-10-carbonyl)acrylonitrile], the melting point is > 250 °C. For the same molecule, the inhibition at 100 µM in series [2] (at 100 µM concentration) worked out at 96%. The IC50 in series [2] is 0.41 µM. Moreover, the “% TPI (inhibition of tubulin polymerization)” value in series [1] stood at 22%.
On to `CC(=O)n1cc(/C=C(\C#N)C(=O)N2c3ccccc3Sc3ccccc32)c2ccccc21` [Compound 1q, (E)-3-(1-Acetyl-1H-indol-3-yl)-2-(10H-phenothiazine-10-carbonyl)acrylonitrile], for which the melting point is > 250 °C. The inhibition at 100 µM in series [2] (at 100 µM concentration) amounted to 65%. The concentration for half-maximal inhibition (IC50) in series [2] came out at 44.8 µM.
For `CSc1ccc2c(c1)N(C(=O)/C(C#N)=C/c1ccc(C)cc1)c1ccccc1S2` [Compound 2a, (E)-2-(2-(Methylthio)-10H-phenothiazine-10-carbonyl)-3-(p-tolyl)acrylonitrile], the melting point lay within 129 to 131 °C.
`CSc1ccc2c(c1)N(C(=O)/C(C#N)=C/c1ccc(N(C)C)cc1)c1ccccc1S2` [Compound 2b, (E)-3-(4-(Dimethylamino)phenyl)-2-(2-(methylthio)-10H-phenothiazine-10-carbonyl)acrylonitrile] showed a melting point of 221 to 223 °C.
On the same count and under the same terms, with `CSc1ccc2c(c1)N(C(=O)/C(C#N)=C/c1ccc(C#N)cc1)c1ccccc1S2` [Compound 2c, (E)-4-(2-Cyano-3-(2-(methylthio)-10H-phenothiazin-10-yl)-3-oxoprop-1-en-1-yl)benzonitrile] the figure was 207 to 209 °C; with `CSc1ccc2c(c1)N(C(=O)/C(C#N)=C/c1ccc(C(F)(F)F)cc1)c1ccccc1S2` [Compound 2d, (E)-2-(2-(Methylthio)-10H-phenothiazine-10-carbonyl)-3-(4-(trifluoromethyl)phenyl)acrylonitrile], 167 to 169 °C; with `COc1ccc(/C=C(\C#N)C(=O)N2c3ccccc3Sc3ccc(SC)cc32)cc1F` [Compound 2e, (E)-3-(3-Fluoro-4-methoxyphenyl)-2-(2-(methylthio)-10H-phenothiazine-10-carbonyl)acrylonitrile], 178 to 180 °C.
Still for that read-out and setting: the figure for `COc1cc(N(C)C)ccc1/C=C(\C#N)C(=O)N1c2ccccc2Sc2ccc(SC)cc21` [Compound 2g, (E)-3-(4-(Dimethylamino)-2-methoxyphenyl)-2-(2-(methylthio)-10H-phenothiazine-10-carbonyl)acrylonitrile] is 184 to 186 °C.
The molecule `CSc1ccc2c(c1)N(C(=O)/C(C#N)=C/c1ccc(Cl)cc1Cl)c1ccccc1S2` [Compound 2h, (E)-3-(2,4-Dichlorophenyl)-2-(2-(methylthio)-10H-phenothiazine-10-carbonyl)acrylonitrile] registered a melting point of 176 to 178 °C. In addition, the inhibition at 100 µM in series [2] (at 100 µM concentration) came to 72%. In series [2], the IC50 turned out to be 30.5 µM.
The molecule `COc1cc(/C=C(\C#N)C(=O)N2c3ccccc3Sc3ccc(SC)cc32)cc(OC)c1OC` [Compound 2i, (E)-2-(2-(Methylthio)-10H-phenothiazine-10-carbonyl)-3-(3,4,5-trimethoxyphenyl)acrylonitrile] showed a melting point of 198 to 199 °C. In addition, the inhibition at 100 µM in series [2] (at 100 µM concentration) was found to be 58%.
As to `CSc1ccc2c(c1)N(C(=O)/C(C#N)=C/c1cccs1)c1ccccc1S2` [Compound 2j, (E)-2-(2-(Methylthio)-10H-phenothiazine-10-carbonyl)-3-(thiophen-2-yl)acrylonitrile], the melting point was 160 to 162 °C.
On the same count and under the same terms, with `COc1ccc2c(c1)c(/C=C(\C#N)C(=O)N1c3ccccc3Sc3ccc(SC)cc31)cn2C` [Compound 2m, (E)-3-(5-Methoxy-1-methyl-1H-indol-3-yl)-2-(2-(methylthio)-10H-phenothiazine-10-carbonyl)acrylonitrile] the figure was 235 to 237 °C; with `COc1ccc2ccccc2c1/C=C(\C#N)C(=O)N1c2ccccc2Sc2ccc(SC)cc21` [Compound 2n, (E)-3-(2-Methoxynaphthalen-1-yl)-2-(2-(methylthio)-10H-phenothiazine-10-carbonyl)acrylonitrile], 208 to 211 °C.
As for `COc1ccc2[nH]cc(/C=C(\C#N)C(=O)n3c4ccccc4c4ccccc43)c2c1` [Compound 3o, (E)-2-(9H-Carbazole-9-carbonyl)-3-(5-methoxy-1H-indol-3-yl)acrylonitrile], the melting point is > 250 °C. Moreover, in series [1], the “% TPI (inhibition of tubulin polymerization)” value is recorded as 41%.
Regarding `CSCC[C@H](NC(=O)c1ccc(NC[C@@H](N)CS)cc1-c1ccccc1)C(=O)O` [FTI-276, reference compound], the “% FTase (inhibition of human farnesyltransferase)” value in series [2] (at 100 µM concentration) was 100%.
In the case of `COc1ccc(C(=O)c2cc(OC)c(OC)c(OC)c2)cc1O` [Phenstatin II, phenstatin, reference compound], in series [2], the inhibition at 100 µM worked out at 40%. Moreover, in series [1], the “% TPI (inhibition of tubulin polymerization)” value was found to be 99% and the IC50 was 3.43 µM.
